Laboratory results reported in patent US5458874A, “Method of increasing monocyte chemotaxis with CAP37 and monocyte chemotactic portions thereof” (Emory University, priority 1992, dated 1995).
“Also recorded” adds a separate entry of the source. Read-outs that look alike come from different tables or passages of the source.

What was measured:
[1] = system: Salmonella typhimurium SH9178; assay: Bactericidal assay; format: cell-based; conditions: for bactericidal effect on Salmonella typhimurium SH9178 (in words): FIGS. 12, 13, 15, 1 hour at 37° C.; for % survival with peptide 20-44: Salmonella SH9178
Method: (§1) An overnight culture of Salmonella typhimurium (or other microorganism of interest, if desired) is set up by inoculating one colony in 5 ml of LB Broth (LB Broth consists of 10 g BACTO tryptone (DIFCO), 5 g BACFO yeast (DIFCO) and 5 g NaCl made up to 1 L with endotoxin free water; add 15 g of BACTO agar (DIFCO) to this broth to make LB agar (autoclave). The culture is incubated at 37° C. with rotation. 100 μl of this overnight culture is then transferred to 5 ml of fresh LB Broth and incubated at 37° C. with rotation for 2 hours. Four ml of this log phase culture is then transferred to a sterile cuvette and the optical density is read at […]. Dilutions of the microorganism are then made in tryptone saline (5 g BAOTO tryptone (DIFCO) and 5 g NaCl made up to 1 L with endotoxin free water, pH 5.5) to give a final concentration of 5×10^3 organisms/ml (an O.D. reading of 0.25 at 520 mm is equivalent to 1×10^8 organisms/ml). The microorganisms are placed at 4° C. until ready to be used.
(§2) The stock solutions of peptides are stored at -20° C. at concentrations of 1 mg/ml of endotoxin-free water. The peptide is diluted out in tryptone saline to the desired concentration. 100 μl of the peptide is added to each well of the microtitre plate (Corning) and then 100 μl of the bacterial suspension (well vortexed) is added. Each assay point is set up in triplicate. 100 μl of a control, consisting of bacteria and tryptone saline (T=0) in the absence of peptide is plated out on LB agar plates. The microliter plate is then incubated at 37° C. for 1 hour. At the end of the incubation time, 100 μl of each sample is plated out on LB agar plates. The T=60 control (consisting of bacteria and tryptone saline in the absence of peptide) is plated out last. The plates are incubated overnight, and the number of colony forming units (CFU) are determined.
(§3) The % killed is determined as follows: [formula]

[2] = system: Salmonella typhimurium SH9178; assay: Inhibition of the bactericidal effect by LPS and Lipid A; format: cell-based; conditions: peptide at 200 μg/ml, FIG. 16
Method: To identity, those peptides derived from CAP37 having bacterial LPS-binding activity, the peptide fragments having bactericidal activity were tested to ascertain whether LPS or Lipid A inhibited that activity.

Salmonella LT2 = assay: Bactericidal assay; format: cell-based, Salmonella typhimurium; conditions: for % survival with peptide 20-44: Salmonella LT2; for bactericidal activity (in words): Salmonella typhimurium LT2
Method: as §1, §2, §3

Salmonella SH7518 = assay: Bactericidal assay; format: cell-based, Salmonella typhimurium; conditions: for % survival with peptide 20-44: Salmonella SH7518
Method: as §1, §2, §3

L monocytogenes = assay: Bactericidal assay; format: cell-based, Listeria monocytogenes
Method: as §1
(§4) The stock solutions of peptides are stored at -20° C. at concentrations of 1 mg/ml of endotoxin-free water. The peptide is diluted out in tryptone saline to the desired concentration. […] The plates are incubated overnight, and the number of colony forming units (CFU) are determined.
as §3

Salmonella SH7426 = assay: Bactericidal assay; format: cell-based
Method: as §1, §2, §3

S. aureus 502A = assay: Bactericidal assay; format: cell-based, Staphylococcus aureus
Method: as §1, §4, §3

wild type LPS = assay: Neutralization of LPS activity, limulus amebocyte lysate (LAL) assay, wild type LPS; format: biochemical
Method: (§5) Further, the neutralization of LPS activity, as assayed by the limulus amebocyte lysate (LAL) assay, by CAP37 was measured. CAP37 was diluted to the desired concentrations (from 6.2 ng/ml to 500 ng/ml) in geys buffered saline pH 7 (GIBCO). To this wild type LPS (RIBI IMMUNOCHEM) or Re LPS from Salmonella (David Morrison, Kansas Medical Center) was added so that the final concentrations were 0.1, 0.5, 1.0 and 2.0 ng/ml LPS. The tubes were incubated at 37° C. for between 30 to 60 minutes and then assayed in the chromogenic LAL assay, using polymyxin E as a control.
(§6) As discussed in Example 11, peptides can be screened for lipopolysaccharide neutralizing capacity using the LAL assay also. The CAP37 peptide was diluted to the desired concentrations (from 125 ng/ml to 4000 ng/ml) in geys buffered saline pH 7 (GIBCO). To this is added the wild type LPS (RIBI IMMUNOCHEM) or Re LPS from Salmonella (David Morrison, Kansas Medical Center) so that the final concentration is 0.1, 0.5, and 1.0 ng/ml LPS. The tubes were incubated at 37° C. for between 30 to 60 minutes and then assayed in the chromogenic LAL assay.

P. mirabilis Re45 = assay: Bactericidal assay; format: cell-based, Proteus mirabilis; conditions: for % survival with peptide 20-44: P. mirabilis Re45
Method: as §1, §2, §3

[3] = system: gram negative and gram positive bacteria; assay: Bactericidal assay, assortment of bacteria (FIG. 14); format: cell-based
Method: as §1, §4, §3

E. faecalis = assay: Bactericidal assay; format: cell-based, Enterococcus faecalis
Method: as §1, §2, §3

Re LPS from Salmonella = assay: Neutralization of LPS activity, limulus amebocyte lysate (LAL) assay, Re LPS; format: biochemical
Method: as §5, §6

Strep. pyogenes = assay: Bactericidal assay; format: cell-based, Streptococcus pyogenes
Method: as §1, §4, §3

Ps. aeruginosa = assay: Bactericidal assay; format: cell-based, Pseudomonas aeruginosa; conditions: for % survival with peptide 20-44: Ps. aeruginosa; for bactericidal activity (in words): Pseudomonas
Method: as §1, §2, §3

E. coli = assay: Bactericidal assay; format: cell-based, Escherichia coli
Method: as §1, §2, §3

human monocytes = assay: Monocyte chemotaxis, modified Boyden chamber technique; format: cell-based; conditions: chemoattractant conc. 10^-8 M
Method: Chemotaxis was measured using the modified Boyden chamber technique (Snyderman et al.). The leading front method (Zigmond et al.) was used to assess migration of monocytes and lymphocytes through a 8 μm filter (Millipore Corporation, Bedford, Mass.). PMN chemotaxis was measured using a 3 μm filter (Millipore). The purified CAP37 protein (Example 1) used in chemotaxis assays were endotoxin-free as determined by the Limulus Amoebocyte Lysate Assay (Whittaker Bioproducts, Inc., Walkersville, Md.). The dilutions of CAP37 and N-formyl-methionyl-leucyl-phenylalanine (FMLP) were made in Geys buffer (Gibco) containing 2% endotoxin-free bovine serum albumin (BSA). Geys buffer containing 2% BSA served as the negative control, and a […] solution of FMLP as the positive control.
The chambers were incubated in a humidified atmosphere (6.2% CO2) for 2 hours when testing monocytes and lymphocytes, and for 30 minutes when testing PMNs. The filters were then removed and processed as previously described (Snyderman et al.). The cells were viewed using oil immersion and the distance the cells had migrated into the filter was determined over five different fields on the same slide (Zigmond et al.). Triplicate assays were performed for each experimental point.
The three peptides were tested for chemotactic activity towards monocytes using the modified Boyden Chamber technique described in Example 2. The monocyte chemotactic activity of each peptide fragment at concentrations ranging from 10^-7 to 10^-13 M was compared with Geys buffer (negative control), FMLP 10^-8 M (positive control) and purified CAP37 10^-9 M (positive control). […] The effect of peptide 1 on monocyte chemotaxis is illustrated in Table 2 while the effect of peptide 3 on monocyte chemotaxis is illustrated in Table 3.

## 26-42aa: synthesized peptide fragment, amino acids 26-42 of the mature CAP37 protein (CGGALIHARFVMTAASC; UniProt P20160 52-68, looked up, fragment)
[1]
  bactericidal effect on Salmonella typhimurium SH9178 (in words): minimal activity

## peptide 20-44aa: synthesized peptide fragment, amino acids 20-44 of the mature CAP37 protein (NQGRHFCGGALIHARFVMTAASCFQ)
[2]
  inhibition of the bactericidal effect by wild type LPS and Lipid A: wild type LPS, but more particularly Lipid A, can inhibit the bactericidal effect
Salmonella LT2; 50 uM
  % survival with peptide 20-44: 28.5%
Salmonella LT2; 75 uM
  % survival with peptide 20-44: 1.7%
Salmonella LT2
  bactericidal activity (in words): more active
Salmonella LT2; listed as CAP37 peptide 20-44
  bactericidal activity (in words): most active
Salmonella SH7518; 50 uM
  % survival with peptide 20-44: 0.6%
Salmonella SH7518; 75 uM
  % survival with peptide 20-44: 0%
Salmonella SH7518; Salmonella typhimurium SH7518
  bactericidal activity (in words): most active
L monocytogenes; 50 uM
  % survival with peptide 20-44: 65.8%
L monocytogenes; 75 uM
  % survival with peptide 20-44: 64.6%
[1]; 50 uM
  % survival with peptide 20-44: 36.9%
[1]; 75 uM
  % survival with peptide 20-44: 3.5%
[1]; 100 and 125 μM, FIG. 15
  bactericidal activity compared with cathepsin G and elastase peptides: very much more bactericidal
[1]
  bactericidal effect on Salmonella typhimurium SH9178 (in words): most potent antibiotic of these peptides; also recorded: Strongest activity; also recorded: extremely active
[1]; listed as CAP37 peptide 20-44
  bactericidal effect on Salmonella typhimurium SH9178 (in words): most active
Salmonella SH7426; 50 uM
  % survival with peptide 20-44: 62.5%
Salmonella SH7426; 75 uM
  % survival with peptide 20-44: 31.9%
S. aureus 502A; 50 uM
  % survival with peptide 20-44: 58.7%
S. aureus 502A; 75 uM
  % survival with peptide 20-44: 27.5%
Wild type LPS
  neutralization of wild type LPS activity (LAL assay): neutralizing its effect to a certain extent
P. mirabilis Re45; 50 uM
  % survival with peptide 20-44: 26.8%
P. mirabilis Re45; 75 uM
  % survival with peptide 20-44: 29%
P. mirabilis Re45; Pr. mirabilis Re45
  bactericidal activity (in words): more active
[3]
  antibacterial activity against gram negative and gram positive bacteria (in words): active against a wide assortment of bacteria
[3]; listed as peptide 20-14aa
  antibacterial activity against gram negative and gram positive bacteria (in words): active against many other bacteria
E. faecalis
  bactericidal activity (in words): more active
E. faecalis; 50 uM
  % survival with peptide 20-44: 16.1%
E. faecalis; 75 uM
  % survival with peptide 20-44: 0%
E. faecalis; listed as CAP37 peptide 20-44
  bactericidal activity (in words): most active
Re LPS from Salmonella
  neutralization of Re LPS activity (LAL assay): more dramatic
Strep. pyogenes; 50 uM
  % survival with peptide 20-44: 93.4%
Strep. pyogenes; 75 uM
  % survival with peptide 20-44: 78%
Ps. aeruginosa; 50 uM
  % survival with peptide 20-44: 0%
Ps. aeruginosa; 75 uM
  % survival with peptide 20-44: 0%
Ps. aeruginosa
  bactericidal activity (in words): more active
Ps. aeruginosa; listed as CAP37 peptide 20-44
  bactericidal activity (in words): most active
E. coli
  bactericidal activity (in words): more active
E. coli; 50 uM
  % survival with peptide 20-44: 24.6%
E. coli; 75 uM
  % survival with peptide 20-44: 0%
E. coli; listed as CAP37 peptide 20-44
  bactericidal activity (in words): most active

## 1-44aa: synthesized peptide fragment, amino acids 1-44 of the mature CAP37 protein (IVGGRKARPRQFPFLASIQNQGRHFCGGALIHARFVMTAASCFQ; UniProt P20160 27-70, looked up, fragment)
[1]
  bactericidal effect on Salmonella typhimurium SH9178 (in words): active but not to the same extent as peptide 20-44aa

## CSCC[C@H](NC=O)C(=O)N[C@@H](CC(C)C)C(=O)N[C@@H](Cc1ccccc1)C(=O)O [FMLP, N-formyl-methionyl-leucyl-phenylalanine, reference compound]
Human monocytes; Table 2
  Distance migrated in μm: 86.2 μm
Human monocytes; Table 3
  Distance migrated in μm: 91.4 μm
